Test results: patent publication US9862716B2, “TRKA kinase inhibitors, compositions and methods thereof” (Merck Sharp & Dohme Corp., priority 2014, dated 2018)

target: T1, human TrkA receptor (Homo sapiens, UniProt P04629); test: DiscoverX PathHunter TrkA functional assay (NGF-stimulated U2OS cells); assay type: cell-based; settings: U2OS cells expressing human TrkA-PK, Shc1-EA and p75NTR; compound 1 h, then NGF at ~80% of maximal response for 3 h; luminescence
T1 construct: host or cells: U2OS cells (PathHunter cell line)
T1 sequence (P04629 33-796): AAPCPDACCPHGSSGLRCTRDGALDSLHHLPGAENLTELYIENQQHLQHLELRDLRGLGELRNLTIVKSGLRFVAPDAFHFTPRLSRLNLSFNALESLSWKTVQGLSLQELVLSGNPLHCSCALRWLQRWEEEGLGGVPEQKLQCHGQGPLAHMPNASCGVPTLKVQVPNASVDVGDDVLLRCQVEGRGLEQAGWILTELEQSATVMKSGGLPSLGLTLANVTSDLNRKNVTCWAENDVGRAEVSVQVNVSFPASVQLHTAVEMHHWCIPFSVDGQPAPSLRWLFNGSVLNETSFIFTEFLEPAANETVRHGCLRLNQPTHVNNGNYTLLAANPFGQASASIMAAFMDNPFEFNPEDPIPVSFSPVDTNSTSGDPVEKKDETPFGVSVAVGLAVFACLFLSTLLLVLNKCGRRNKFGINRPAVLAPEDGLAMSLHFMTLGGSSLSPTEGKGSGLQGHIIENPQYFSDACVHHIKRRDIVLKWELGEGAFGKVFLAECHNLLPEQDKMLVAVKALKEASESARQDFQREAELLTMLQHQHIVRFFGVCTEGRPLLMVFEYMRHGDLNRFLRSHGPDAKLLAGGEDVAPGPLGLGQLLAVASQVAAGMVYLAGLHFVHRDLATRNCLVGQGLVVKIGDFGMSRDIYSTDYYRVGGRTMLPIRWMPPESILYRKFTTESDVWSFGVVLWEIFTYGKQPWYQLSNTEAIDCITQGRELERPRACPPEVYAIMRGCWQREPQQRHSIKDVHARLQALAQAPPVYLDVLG

Row | IC50 [nM] | SMILES
1 | 40 | O=C(Nc1c(-c2ccccc2)nc2ccccn12)c1cc(-c2ncccn2)c(Cl)cc1F [Compound 30, 4-chloro-2-fluoro-N-(2-phenylimidazo[1,2-a]pyridin-3-yl)-5-pyrimidin-2-ylbenzamide]
2 | 27 | Cn1ccc(-c2cc(C(=O)Nc3nc4ccccc4nc3-c3ccccc3)ccc2C(F)(F)F)n1 [Compound 31, 3-(1-methyl-1H-pyrazol-3-yl)-N-(3-phenylquinoxalin-2-yl)-4-(trifluoromethyl) benzamide]
3 | 477 | Cn1ccc(-c2cc(C(=O)Nc3c(-c4ccccc4)nc4ccccn34)c(O)cc2C(F)(F)F)n1 [Compound 32, 2-hydroxy-5-(1-methyl-1H-pyrazol-3-yl)-N-(2-phenylimidazo[1,2-a]pyridin-3-yl)-4-(trifluoromethyl) benzamide]
4 | 532 | Cn1ccc(-c2cc(C(=O)Nc3c(-c4ccccc4)nc4ccccn34)c(C#N)cc2C(F)(F)F)n1 [Compound 33, 2-cyano-5-(1-methyl-1H-pyrazol-3-yl)-N-(2-phenylimidazo[1,2-a]pyridin-3-yl)-4-(trifluoromethyl) benzamide]
5 | 58 | O=C(Nc1c(-c2ccccc2)nc2ccccn12)c1ccc(C(F)(F)F)c(-c2nc[nH]n2)c1 [Compound 34, N-(2-phenylimidazo[1,2-a]pyridin-3-yl)-3-(1H-1,2,4-triazol-3-yl)-4-(trifluoromethyl) benzamide]
6 | 0.49 | Cn1ccc(-c2cc(C(=O)Nc3c(-c4ccccc4)nc4ccccn34)c(F)cc2C(F)(F)F)n1 [Compound 35, 2-fluoro-5-(1-methyl-1H-pyrazol-3-yl)-N-(2-phenylimidazo[1,2-a]pyridin-3-yl)-4-(trifluoromethyl) benzamide]
7 | 0.34 | Cn1ccc(-c2cc(C(=O)Nc3c(-c4ccccc4)nc4ccc(C(C)(C)O)cn34)ccc2C(F)(F)F)n1 [Compound 36, N-[6-(1-hydroxy-1-methylethyl)-2-phenylimidazo[1,2-a]pyridin-3-yl]-3-(1-methyl-1H-pyrazol-3-yl)-4-(trifluoromethyl) benzamide]
8 | 1.8 | Cn1ccc(-c2cc(C(=O)Nc3c(-c4ccccc4)nc4ccc(CO)cn34)ccc2C(F)(F)F)n1 [Compound 37, N-[6-(hydroxymethyl)-2-phenylimidazo[1,2-a]pyridin-3-yl]-3-(1-methyl-1H-pyrazol-3-yl)-4-(trifluoromethyl) benzamide]
9 | 2.4 | Cn1ccc(-c2cc(C(=O)Nc3c(-c4ccccc4)nc4c(CO)cccn34)ccc2C(F)(F)F)n1 [Compound 38, N-[8-(hydroxymethyl)-2-phenylimidazo[1,2-a]pyridin-3-yl]-3-(1-methyl-1H-pyrazol-3-yl)-4-(trifluoromethyl) benzamide]
10 | 2.7 | Cn1ccc(-c2cc(C(=O)Nc3c(-c4ccccc4)nc4cc(Br)ccn34)ccc2C(F)(F)F)n1 [Compound 39, N-(7-bromo-2-phenylimidazo[1,2-a]pyridin-3-yl)-3-(1-methyl-1H-pyrazol-3-yl)-4-(trifluoromethyl) benzamide]
11 | 2.7 | O=C(Nc1c(-c2ccccc2)nc2ccccn12)c1cc(-c2cc[nH]n2)c(C(F)(F)F)cc1F [Compound 40, 2-fluoro-N-(2-phenylimidazo[1,2-a]pyridin-3-yl)-5-(1H-pyrazol-3-yl)-4-(trifluoromethyl) benzamide]
12 | 0.96 | C[C@H](O)c1ccn2c(NC(=O)c3ccc(C(F)(F)F)c(-c4ccn(C)n4)c3)c(-c3ccccc3)nc2c1 [Compound 41, N-{7-[(1S)-1-hydroxyethyl]-2-phenylimidazo[1,2-a]pyridin-3-yl}-3-(1-methyl-1H-pyrazol-3-yl)-4-(trifluoromethyl) benzamide]
13 | 7.9 | CC(C)(O)c1ccn2c(NC(=O)c3ccc(C(F)(F)F)c(-c4ncccn4)c3)c(-c3ccccc3)nc2c1 [Compound 43, N-[7-(1-hydroxy-1-methylethyl)-2-phenylimidazo[1,2-a]pyridin-3-yl]-3-pyrimidin-2-yl-4-(trifluoromethyl) benzamide]
14 | 1.4 | CC(C)(O)c1ccc2nc(-c3ccccc3)c(NC(=O)c3ccc(C(F)(F)F)c(-c4ncccn4)c3)n2c1 [Compound 44, N-[6-(1-hydroxy-1-methylethyl)-2-phenylimidazo[1,2-a]pyridin-3-yl]-3-pyrimidin-2-yl-4-(trifluoromethyl) benzamide]
15 | 5 | COC1CN(Cc2ccn3c(NC(=O)c4ccc(C(F)(F)F)c(-c5ccn(C)n5)c4)c(-c4ccccc4)nc3c2)C1 [Compound 45, N-{7-[(3-methoxyazetidin-1-yl)methyl]-2-phenylimidazo[1,2-a]pyridin-3-yl}-3-(1-methyl-1H-pyrazol-3-yl)-4-(trifluoromethyl) benzamide]
16 | 0.44 | Cc1coc(-c2cc(C(=O)Nc3c(-c4ccccc4)nc4cc(C(C)(C)O)ccn34)ccc2C(F)(F)F)n1 [Compound 46, N-[7-(1-hydroxy-1-methylethyl)-2-phenylimidazo[1,2-a]pyridin-3-yl]-3-(4-methyl-1,3-oxazol-2-yl)-4-(trifluoromethyl) benzamide]

Row | IC50 [nM] | SMILES
17 | 8.8 | Cn1ccc(-c2cc(C(=O)Nc3c(-c4ccccc4)nc4ccc(CN5CC(F)C5)cn34)ccc2C(F)(F)F)n1 [Compound 47, N-{6-[(3-fluoroazetidin-1-yl)methyl]-2-phenylimidazo[1,2-a]pyridin-3-yl}-3-(1-methyl-1H-pyrazol-3-yl)-4-(trifluoromethyl) benzamide]
18 | 0.45 | Cn1ccc(-c2cc(C(=O)Nc3c(-c4ccccc4)nc4cc(C(C)(C)O)ccn34)c(F)cc2C(F)(F)F)n1 [Compound 50, 2-fluoro-N-[7-(1-hydroxy-1-methylethyl)-2-phenylimidazo[1,2-a]pyridin-3-yl]-5-(1-methyl-1H-pyrazol-3-yl)-4-(trifluoromethyl) benzamide]
19 | 1.1 | CC(C)(O)c1ccn2c(NC(=O)c3cc(-c4ncccn4)c(C(F)(F)F)cc3F)c(-c3ccccc3)nc2c1 [Compound 53, 2-fluoro-N-[7-(1-hydroxy-1-methylethyl)-2-phenylimidazo[1,2-a]pyridin-3-yl]-5-pyrimidin-2-yl-4-(trifluoromethyl) benzamide]
20 | 1.7 | COc1ccn2c(NC(=O)c3cc(-c4ncccn4)c(C(F)(F)F)cc3F)c(-c3ccccc3)nc2c1 [Compound 59, 2-fluoro-N-(7-methoxy-2-phenylimidazo[1,2-a]pyridin-3-yl)-5-pyrimidin-2-yl-4-(trifluoromethyl) benzamide]
21 | 14 | Cc1ccn(-c2cc(C(=O)Nc3c(-c4ccccc4)nc4cc(C(C)(C)O)ccn34)ccc2C(F)(F)F)n1 [Compound 60, N-[7-(1-hydroxy-1-methylethyl)-2-phenylimidazo[1,2-a]pyridin-3-yl]-3-(3-methyl-1H-pyrazol-1-yl)-4-(trifluoromethyl) benzamide]
22 | 3.4 | Cn1ccc(-c2cc(C(=O)Nc3c(-c4ccccc4)nc4cc(C5(O)CC5)ccn34)ccc2C(F)(F)F)n1 [Compound 69, N-[7-(1-hydroxycyclopropyl)-2-phenylimidazo[1,2-a]pyridin-3-yl]-3-(1-methyl-1H-pyrazol-3-yl)-4-(trifluoromethyl) benzamide]
23 | 1.2 | Cn1ccc(-c2cc(C(=O)Nc3c(-c4ccccc4)nc4cc(C(C)(C)O)ccn34)c(Cl)cc2C(F)(F)F)n1 [Compound 70, 2-chloro-N-[7-(1-hydroxy-1-methylethyl)-2-phenylimidazo[1,2-a]pyridin-3-yl]-5-(1-methyl-1H-pyrazol-3-yl)-4-(trifluoromethyl) benzamide]
24 | 7.6 | Cc1ccnc(-c2cc(C(=O)Nc3c(-c4ccccc4)nc4cc(C(C)(C)O)ccn34)c(Cl)cc2C(F)(F)F)n1 [Compound 71, 2-chloro-N-[7-(1-hydroxy-1-methylethyl)-2-phenylimidazo[1,2-a]pyridin-3-yl]-5-(4-methylpyrimidin-2-yl)-4-(trifluoromethyl) benzamide]
25 | 4.1 | Cn1ccc(-c2cc(C(=O)Nc3c(-c4ccccc4)[nH]c4ccccc34)c(F)cc2C(F)(F)F)n1 [Compound 72, 2-fluoro-5-(1-methyl-1H-pyrazol-3-yl)-N-(2-phenyl-1H-indol-3-yl)-4-(trifluoromethyl) benzamide]
26 | 4.5 | Cc1cc(C(F)(F)F)c(-c2ccn(C)n2)cc1C(=O)Nc1c(-c2ccccc2)nc2cc(C(C)(C)O)ccn12 [Compound 75, N-[7-(1-hydroxy-1-methylethyl)-2-phenylimidazo[1,2-a]pyridin-3-yl]-2-methyl-5-(1-methyl-1H-pyrazol-3-yl)-4-(trifluoromethyl) benzamide]
27 | 8.2 | O=C(Nc1c(-c2ccccc2)[nH]c2ccccc12)c1cc(-c2ncccn2)c(C(F)(F)F)cc1F [Compound 76, 2-fluoro-N-(2-phenyl-1H-indol-3-yl)-5-pyrimidin-2-yl-4-(trifluoromethyl) benzamide]
28 | 8.2 | CC(=O)NCc1ccn2c(NC(=O)c3ccc(C(F)(F)F)c(-c4ccn(C)n4)c3)c(-c3ccccc3)nc2c1 [Compound 79, N-{7-[(acetylamino)methyl]-2-phenylimidazo[1,2-a]pyridin-3-yl}-3-(1-methyl-1H-pyrazol-3-yl)-4-(trifluoromethyl) benzamide]
29 | 20 | Cn1ccc(-c2cc(C(=O)Nc3c(-c4ccccc4)nc4cc(CNC(=O)CO)ccn34)ccc2C(F)(F)F)n1 [Compound 80, N-(7-{[(hydroxyacetyl)amino]methyl}-2-phenylimidazo[1,2-a]pyridin-3-yl)-3-(1-methyl-1H-pyrazol-3-yl)-4-(trifluoromethyl) benzamide]
30 | 15 | CNC(=O)NCc1ccn2c(NC(=O)c3ccc(C(F)(F)F)c(-c4ccn(C)n4)c3)c(-c3ccccc3)nc2c1 [Compound 81, N-(7-{[(methylcarbamoyl)amino]methyl}-2-phenylimidazo[1,2-a]pyridin-3-yl)-3-(1-methyl-1H-pyrazol-3-yl)-4-(trifluoromethyl) benzamide]
31 | 0.77 | COC(=O)NCc1ccn2c(NC(=O)c3ccc(C(F)(F)F)c(-c4ccn(C)n4)c3)c(-c3ccccc3)nc2c1 [Compound 83, methyl{[3-({[3-(1-methyl-1H-pyrazol-3-yl)-4-(trifluoromethyl)phenyl]carbonyl}amino)-2-phenylimidazo[1,2-a]pyridin-7-yl]methyl}carbamate]
